Data: patent KR20210134284A, “분갈 추출물 또는 이로부터 유래된 화합물을 포함하는 피부 개선용 조성물” (주식회사 엘지생활건강, priority 2018, dated 2020)

Key:
[1] = Anti-glycation activity using L-arginine and glucose; details: 70℃, 4 h, 420 nm
[2] = tested on: RAW264.7 cells, NO production (생쥐의 대식세포인 RAW264.7 세포); test: NO production inhibition by GRIESS method in LPS-stimulated RAW264.7 cells (anti-inflammatory); assay type: cell-based; details: Mus musculus, LPS 1 μg, 24 h, read-out: NO production inhibition rate
[3] = DPPH free radical scavenging (antioxidant); details: 37℃, 30 min, 520 nm, concentration removing 50% of free radicals
[4] = tested on: type Ⅰ collagen synthesis in human-derived fibroblasts (제1형 콜라겐; 인간 유래 섬유 아세포); test: Type I collagen synthesis promotion in human fibroblasts (PICP EIA kit); assay type: cell-based; details: 48 h; for type I collagen production amount: negative control 150.2 ng/ml
[5] = tested on: B-16 mouse melanoma cell (쥐의 멜라노마 세포); test: Melanin production inhibition (whitening), absorbance at 400 nm; assay type: cell-based; details: 72 h, 3 days, relative to control, read-out: total melanin inhibition rate
[6] = Homo sapiens, Fibroblast, 10 ppm, relative to control, read-out: collagen production increase rate

| IC50 [3] | SMILES | inhibition at 10 ppm [5] | glycation inhibition rate ([1]; 10 ppm) | type I collagen production amount ([4]; 10 ppm) | activation at 10 ppm [4, 6] | other results |
| --- | --- | --- | --- | --- | --- | --- |
| – | N=C(N)NN [Aminoguanidine, reference compound] | – | – | – | – | glycation inhibition rate ([1]; 55 ppm): 48.12% |
| – | CNC(=N)NCCC[C@H](N)C(=O)O [L-NMMA, L-NG-monomethylarginine, reference compound] | – | – | – | – | inhibition at 10 ppm [2]: 30.6% |
| – | OC[C@H]1O[C@@H](Oc2ccc(O)cc2)[C@H](O)[C@@H](O)[C@@H]1O [알부틴, arbutin, reference compound] | – | – | – | – | inhibition at 100 ppm ([5]; 100 ppm): 47.8% |
| 0.0015 %w/v | COc1c(O[C@@H]2O[C@H](CO[C@@H]3OC[C@@H](O)[C@H](O)[C@H]3O)[C@@H](O)[C@H](O)[C@H]2O)cc2occ(-c3ccc(O)cc3)c(=O)c2c1O [화합물 1, tectorigenin 7-O-xylosylglucoside] | 48.3% | 41.67% | 202.3 ng/mL | 34.7% | inhibition at 100 ppm [2]: 99.5% |
| 0.0024 %w/v | COc1c(O[C@@H]2O[C@H](CO)[C@@H](O)[C@H](O)[C@H]2O)cc2occ(-c3ccc(O)cc3)c(=O)c2c1O [화합물 2, tectoridin] | 63.1% | 38.95% | 221.9 ng/mL | 47.7% | inhibition at 100 ppm [2]: 99.5% |
| 0.0012 %w/v | COc1c(O)cc2occ(-c3ccc(O)cc3)c(=O)c2c1O [화합물 3, tectorigenin] | 32.7% | 34.75% | 208.1 ng/mL | 38.5% | inhibition at 10 ppm [2]: 51.9% |

| SMILES | IC50 [3] | inhibition at 10 ppm [5] | glycation inhibition rate ([1]; 10 ppm) | type I collagen production amount ([4]; 10 ppm) | activation at 10 ppm [4, 6] | other results |
| --- | --- | --- | --- | --- | --- | --- |
| O=C1O[C@H]([C@@H](O)CO)C(O)=C1O [비타민C, reference compound] | 0.0005 %w/v | – | – | – | – | type I collagen production amount ([4]; 50 ppm): 210.9 ng/mL; activation at 50 ppm ([4]; Homo sapiens, Fibroblast, 50 ppm, relative to control, read-out: collagen production increase rate): 40.4% |
